From ChEMBL document CHEMBL1158866, “Bioactive labdane diterpenoids from Renealmia alpinia collected in the Suriname rainforest” (J Nat Prod, 1997)
≈ marks a conversion by molar mass, not a printed value. Calls of active or inactive are those of the source. No cut-off for these calls is given here.

How the values were obtained:
Saccharomyces cerevisiae = assay: Antimicrobial activity against yeast Sc7; assay type: functional
M109 = assay: Cytotoxicity against mouse M109 cells; assay type: functional, cell-based
Candida tropicalis = assay: Antimicrobial activity against Candida tropicalis; assay type: functional
[1] = system: Meyerozyma guilliermondii; assay: Antimicrobial activity against sCandida guilliermondii; assay type: functional
KB = assay: Cytotoxicity against human KB cells; assay type: functional; details: read-out: ED50 (the source's name)

MIC (Candida tropicalis) [µg/mL]	MIC [1] [µg/mL]	Compound	IC12 (Saccharomyces cerevisiae) [µg/mL]	IC50 (M109) [µg/mL]	Activity (M109)	EC50 (KB) [µg/mL]
–	–	C=C1CC[C@H]2C(C)(C)CCC[C@]2(C)[C@H]1[C@@H]1C=C(C=O)C[C@H](O)O1	3	2.6 (≈ 8.16 µM)	–	–
–	–	C=C1CC[C@H]2C(C)(C)CCC[C@]2(C)[C@H]1C/C=C(/C=O)CC(=O)O	200	–	inactive	–
6.25 (≈ 20.7 µM)	6.25 (≈ 20.7 µM)	C=C1CC[C@H]2C(C)(C)CCC[C@]2(C)[C@H]1C/C=C(/C=O)CC=O	46	–	inactive	40 (≈ 132 µM)
